Experimental data: the supplement of paper PMC5908809

Legend:
[1] = test system: normal NK cells expanded with K562-aAPC; experiment: percent inhibition of viability; higher = more inhibition; conditions: 72 h, IL-2 2.5 ng/mL
Experimental: (§1)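 Drug sensitivity and resistance testing on K562-aAPC-expanded normal NK cells: 5 concentrations (10-fold steps over a 10,000-fold range), 72 h at 37 °C, viability by CellTiter-Glo normalised to DMSO and benzethonium chloride controls; DSS from the fitted curve.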

[2] = test system: DERL-7 (IL-2 2.5 ng/mL); experiment: as above; conditions: 72 h
[3] = test system: IMC-1 (IL-2 20 ng/mL); experiment: as above; conditions: 72 h
[4] = test system: KAI3 (IL-2 2.5 ng/mL); experiment: as above; conditions: 72 h
[5] = test system: KHYG-1 (IL-2 2.5 ng/mL); experiment: as above; conditions: 72 h
[6] = test system: NK-92 (IL-2 2.5 ng/mL); experiment: as above; conditions: 72 h
[7] = test system: NK-YS (IL-2 2.5 ng/mL); experiment: as above; conditions: 72 h
[8] = test system: NKL (IL-2 2.5 ng/mL); experiment: as above; conditions: 72 h
[9] = test system: SNK-6 (IL-2 2.5 ng/mL); experiment: as above; conditions: 72 h
[10] = test system: YT (IL-2 2.5 ng/mL); experiment: as above; conditions: 72 h
[11] = test system: normal primary NK cells, pool 1 (3 donors) (IL-2 2.5 ng/mL); experiment: as above; conditions: 72 h
[12] = test system: normal primary NK cells, pool 1 (3 donors), resting (IL-2 0 ng/mL); experiment: as above; conditions: 72 h
[13] = test system: normal primary NK cells, pool 2 (3 donors) (IL-2 2.5 ng/mL); experiment: as above; conditions: 72 h
[14] = test system: normal primary NK cells, pool 3 (3 donors) (IL-2 2.5 ng/mL); experiment: as above; conditions: 72 h
[15] = test system: normal NK cells expanded with K562-aAPC; experiment: drug sensitivity score (DSS) (DSS units); higher = more sensitive; extreme values may be limits of the assay; conditions: 72 h; IL-2 2.5 ng/mL
Experimental: as §1

[16] = test system: DERL-7 (IL-2 2.5 ng/mL); experiment: as above; conditions: 72 h
[17] = test system: IMC-1 (IL-2 20 ng/mL); experiment: as above; conditions: 72 h
[18] = test system: KAI3 (IL-2 2.5 ng/mL); experiment: as above; conditions: 72 h
[19] = test system: KHYG-1 (IL-2 2.5 ng/mL); experiment: as above; conditions: 72 h
[20] = test system: NK-92 (IL-2 2.5 ng/mL); experiment: as above; conditions: 72 h
[21] = test system: NK-YS (IL-2 2.5 ng/mL); experiment: as above; conditions: 72 h
[22] = test system: NKL (IL-2 2.5 ng/mL); experiment: as above; conditions: 72 h
[23] = test system: SNK-6 (IL-2 2.5 ng/mL); experiment: as above; conditions: 72 h
[24] = test system: YT (IL-2 2.5 ng/mL); experiment: as above; conditions: 72 h
[25] = test system: normal primary NK cells, pool 1 (3 donors) (IL-2 2.5 ng/mL); experiment: as above; conditions: 72 h
[26] = test system: normal primary NK cells, pool 1 (3 donors), resting (IL-2 0 ng/mL); experiment: as above; conditions: 72 h
[27] = test system: normal primary NK cells, pool 2 (3 donors) (IL-2 2.5 ng/mL); experiment: as above; conditions: 72 h
[28] = test system: normal primary NK cells, pool 3 (3 donors) (IL-2 2.5 ng/mL); experiment: as above; conditions: 72 h

NCC(=O)Nc1ccc(-n2nc(C(F)(F)F)cc2-c2ccc3c(ccc4ccccc43)c2)cc1 (max concentration tested 25000 nM)
percent inhibition of viability [%]
Conditions | 2.5 nM | 25 nM | 250 nM | 2500 nM | 25000 nM
[1] | 1.57 | 3.13 | 3.22 | 12.5 | 101
[2] | -6.63 | 0.68 | 3.86 | -3.39 | 34.2
[3] | 1.94 | 6.76 | 5.99 | 19.6 | 101
[4] | 13.1 | 14.3 | 13.5 | 14.9 | 104
[5] | 9.05 | 11.9 | 21.5 | 43.8 | 84.5
[6] | -3.92 | -7.91 | 18.1 | 14.3 | 106
[7] | 2.51 | 6.9 | 13.3 | 53.1 | 101
[8] | 9.41 | 11.2 | 10.1 | 18.2 | 76.8
[9] | 2.2 | 12.3 | 18 | 28 | 101
[10] | 8.95 | 9.77 | 11.9 | 10.6 | 104
[11] | 4.23 | -5.3 | 6.37 | -4.79 | 24.2
[12] | -7.15 | -17.6 | -5.36 | -14.6 | 41.8
[13] | -4.35 | -2.12 | 12.8 | 2.37 | 102
[14] | -4.48 | -1.93 | 9.24 | 3.09 | 101

Conditions | drug sensitivity score
[15] | 7.63
[16] | 1.36
[17] | 8.71
[18] | 8.11
[19] | 11.9
[20] | 8.05
[21] | 12.3
[22] | 6.99
[23] | 9.36
[24] | 7.45
[25] | 0.67
[26] | 1.49
[27] | 6.08
[28] | 6.06

Cc1ccc2nc(CN(CCN(Cc3nc4ccc(C)cc4[nH]3)Cc3nc4ccc(C)cc4[nH]3)Cc3nc4ccc(C)cc4[nH]3)[nH]c2c1 (max concentration tested 50000 nM)
percent inhibition of viability [%]
Conditions | 5 nM | 50 nM | 500 nM | 5000 nM | 50000 nM
[1] | -4.88 | -8.25 | -3.73 | 17.5 | 100
[2] | 2.65 | -5.22 | 4.05 | 22 | 101
[3] | -6.83 | -3.4 | -4.29 | 10.4 | 51.3
[4] | -0.45 | -7.54 | 8.33 | 62.9 | 110
[5] | -9.01 | -6.49 | -6.15 | 36.3 | 108
[6] | -27.1 | -13.1 | 15.2 | 54.5 | 110
[7] | -2.1 | -1.56 | 2.07 | 18.1 | 107
[8] | 2.31 | -9.86 | 19.8 | 69.1 | 107
[9] | -21 | -28.4 | -6.29 | -12.1 | 101
[10] | -8.1 | -15.1 | -6.51 | 29.4 | 108
[11] | -9.49 | 4.67 | 4.72 | 25.6 | 101
[12] | -25.9 | 1.32 | 12.4 | 24.8 | 99.8
[13] | -1.51 | 3.91 | 12.8 | 12.1 | 37.9
[14] | -5.58 | -1.41 | 10.2 | 5.2 | 32.2

Conditions | drug sensitivity score
[15] | 8.41
[16] | 9.01
[17] | 4.41
[18] | 13.3
[19] | 10.5
[20] | 12.5
[21] | 8.57
[22] | 15.5
[23] | 4.89
[24] | 9.85
[25] | 9.43
[26] | 9.11
[27] | 3.42
[28] | 2.31

O=c1cc(N2CCOCC2)oc2c(-c3ccccc3)cccc12 (max concentration tested 100000 nM)
percent inhibition of viability [%]
Conditions | 10 nM | 100 nM | 1000 nM | 10000 nM | 100000 nM
[1] | -2.73 | -3.41 | 4.76 | 39.4 | 94.5
[2] | 0.77 | -1.71 | 9.97 | 64.1 | 97.4
[3] | -0.85 | -3.31 | -2.01 | -5.98 | 86.2
[4] | -1.02 | -1.63 | 6.02 | 25.9 | 59.6
[5] | -1.25 | -1.33 | 4.59 | 30.1 | 89.5
[6] | -5.7 | -3.95 | -4.94 | 24 | 64.1
[7] | -4.69 | -3.69 | 1.75 | 45.5 | 83.3
[8] | -14.3 | -15.8 | 3.05 | 55.1 | 69.6
[9] | 3.19 | 3.24 | 18.5 | 59.4 | 92.6
[10] | 1.36 | 2.44 | 6.09 | 37.3 | 68.7
[11] | -1.05 | 3.02 | 7.28 | 35.5 | 97.6
[12] | -0.68 | 6.88 | 14.6 | 52.6 | 92.9
[13] | -8.94 | -2.33 | 8.53 | 41.1 | 95.9
[14] | -5.94 | -9.6 | -2.64 | 20.7 | 96.5

Conditions | drug sensitivity score
[15] | 9.96
[16] | 13.6
[17] | 4.34
[18] | 6.11
[19] | 8.95
[20] | 6.84
[21] | 10.1
[22] | 10.7
[23] | 13.6
[24] | 8.24
[25] | 9.7
[26] | 12.2
[27] | 10.1
[28] | 8.63
